Our source for the EC50, IC50 and Dmax values is patent US12310975B2, “Modulators of BCL6 proteolysis and associated methods of use” (Arvinas Operations, Inc., priority 2019, dated 2025).

For experiment [1], the target named is T1, BCL6 (Homo sapiens (Human), UniProt P41182). The experiment is described as follows: BCL6 TR-FRET assay (BCL6-Avitag-Biotin / BCoR-Cy5 peptide). The format is binding. The conditions noted are these: for IC50: read-out: IC50. The procedure, abridged: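 After 30 min room-temperature preincubation of compound titrations with 2 nM biotinylated BCL6-Avitag, 100 nM Cy5-labelled BCoR peptide plus 2 nM Eu-streptavidin were added and TR-FRET read 2 h later. HEPES pH 7.5/125 mM NaCl buffer with Triton X, glutathione (or DTT) and BSA.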
On the technique in general: TR-FRET usually uses a lanthanide donor and a delayed reading to cut background.

In experiment [2] the target is T1, BCL6. The experiment is described as follows: Immunofluorescence high content imaging of BCL6 degradation in T47D cells. In kind it is cell-based. The procedure, abridged: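 T47D, 3 d compound exposure, 11-pt 3-fold series, top 0.1 or 1 μM final. Fix 4% PFA, Triton permeabilize, anti-BCL6 primary overnight 4 °C, Alexa-488 secondary. High-content imaging 10×, 4 fields/well, top-hat smoothing.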

For the compound `CNC(=O)COc1cc2cc(Nc3nc(N4CCN(CC5CCN(c6ccc(F)c(C(=O)NC7CCC(=O)NC7=O)c6)CC5)CC4)ncc3Cl)ccc2n(C)c1=O` (stereo not drawn) [compound 277, 5-[4-({4-[5-chloro-4-({1-methyl-3-[(methylcarbamoyl)methoxy]-2-oxo-1,2-dihydroquinolin-6-yl}amino)pyrimidin-2-yl]piperazin-1-yl}methyl)piperidin-1-yl]-N-(2,6-dioxopiperidin-3-yl)-2-fluorobenzamide], at BCL6 [1], the EC50 was under 10 nM. On BCL6 [2], this compound returned an IC50 of 10 to 50 nM. Moreover, the Dmax on BCL6 [2] (T47D) was under 50%.
For `CNC(=O)COc1cc2cc(Nc3nc(N4CCN(CC5CCN(c6ccc(C(=O)NC7CCC(=O)NC7=O)nn6)CC5)CC4)ncc3Cl)ccc2n(C)c1=O` (stereo not drawn) [compound 278, 6-[4-({4-[5-chloro-4-({1-methyl-3-[(methylcarbamoyl)methoxy]-2-oxo-1,2-dihydroquinolin-6-yl}amino)pyrimidin-2-yl]piperazin-1-yl}methyl)piperidin-1-yl]-N-(2,6-dioxopiperidin-3-yl)pyridazine-3-carboxamide] the same measures were under 10 nM, 50 to 100 nM and under 50%.
In the same order, the values of `CNC(=O)COc1cc2cc(Nc3nc(N4CCN(C(C)(C)CN5CCN(c6ccc7c(c6)C(=O)N(C6CCC(=O)NC6=O)C7=O)CC5)CC4)ncc3Cl)ccc2n(C)c1=O` (stereo not drawn) [compound 279, 2-{[6-({5-chloro-2-[4-(1-{4-[2-(2,6-dioxopiperidin-3-yl)-1,3-dioxo-2,3-dihydro-1H-isoindol-5-yl]piperazin-1-yl}-2-methylpropan-2-yl)piperazin-1-yl]pyrimidin-4-yl}amino)-1-methyl-2-oxo-1,2-dihydroquinolin-3-yl]oxy}-N-methylacetamide] are 10 to 50 nM, 10 to 50 nM and 50 to 70%.
In the same order, the values of `CNC(=O)COc1cc2cc(Nc3nc(N4CCN(CC(C)(C)N5CCN(c6ccc7c(c6)C(=O)N(C6CCC(=O)NC6=O)C7=O)CC5)CC4)ncc3Cl)ccc2n(C)c1=O` (stereo not drawn) [compound 280, 2-{[6-({5-chloro-2-[4-(2-{4-[2-(2,6-dioxopiperidin-3-yl)-1,3-dioxo-2,3-dihydro-1H-isoindol-5-yl]piperazin-1-yl}-2-methylpropyl)piperazin-1-yl]pyrimidin-4-yl}amino)-1-methyl-2-oxo-1,2-dihydroquinolin-3-yl]oxy}-N-methylacetamide] are 10 to 50 nM, 10 to 50 nM and 50 to 70%.
At BCL6 [1], `CNC(=O)COc1cc2cc(Nc3nc(N4CCN(CC5CCN(c6cnc(C(=O)NC7CCC(=O)NC7=O)cn6)CC5)CC4)ncc3Cl)ccc2n(C)c1=O` (stereo not drawn) [compound 281, 5-[4-({4-[5-chloro-4-({1-methyl-3-[(methylcarbamoyl)methoxy]-2-oxo-1,2-dihydroquinolin-6-yl}amino)pyrimidin-2-yl]piperazin-1-yl}methyl)piperidin-1-yl]-N-(2,6-dioxopiperidin-3-yl)pyrazine-2-carboxamide] gave an EC50 of 10 to 50 nM. The compound further yielded a half-maximal inhibitory concentration (IC50) against BCL6 [2] of under 10 nM. The same compound came in with a Dmax on BCL6 [2] (T47D) of under 50%.
Take `CN1C(=O)CCc2cc(Nc3nc(N4CCN(CC5CCN(c6ccc7c(c6)C(=O)N(C6CCC(=O)NC6=O)C7=O)CC5)CC4)ncc3Cl)ccc21` (stereo not drawn) [compound 369, 5-{4-[(4-{5-chloro-4-[(1-methyl-2-oxo-1,2,3,4-tetrahydroquinolin-6-yl)amino]pyrimidin-2-yl}piperazin-1-yl)methyl]piperidin-1-yl}-2-(2,6-dioxopiperidin-3-yl)-2,3-dihydro-1H-isoindole-1,3-dione]: the EC50 on BCL6 [1] is over 100 nM. This compound also returned an IC50 against BCL6 [2] (T47D cells) of at least 100 nM.
At BCL6 [1], `CN1C(=O)CCc2cc(Nc3nc(N4CCN(CC5CCN(c6cccc7c6C(=O)N(C6CCC(=O)NC6=O)C7=O)CC5)CC4)ncc3Cl)ccc21` (stereo not drawn) [compound 378, 4-{4-[(4-{5-chloro-4-[(1-methyl-2-oxo-1,2,3,4-tetrahydroquinolin-6-yl)amino]pyrimidin-2-yl}piperazin-1-yl)methyl]piperidin-1-yl}-2-(2,6-dioxopiperidin-3-yl)-2,3-dihydro-1H-isoindole-1,3-dione] gave an EC50 of over 100 nM. On BCL6 [2] (T47D cells), this compound came in with a Dmax of under 50% and an IC50 of at least 100 nM.
As for `CNC(=O)COc1cc2cc(Nc3nc(N4CC5(CCC(OC6CCN(c7ccc8c(c7)C(=O)N(C7CCC(=O)NC7=O)C8=O)CC6)CC5)C4)ncc3Cl)ccc2n(C(C)C)c1=O` (stereo not drawn) [compound 444, 2-{[6-({5-chloro-2-[7-({1-[2-(2,6-dioxopiperidin-3-yl)-1,3-dioxo-2,3-dihydro-1H-isoindol-5-yl]piperidin-4-yl}oxy)-2-azaspiro[3.5]nonan-2-yl]pyrimidin-4-yl}amino)-2-oxo-1-(propan-2-yl)-1,2-dihydroquinolin-3-yl]oxy}-N-methylacetamide], at BCL6 [1], the IC50 was under 10 nM. Further, the Dmax on BCL6 [2] (T47D) fell in the range of 50 to 70%.
Take `CNC(=O)COc1cc2cc(Nc3nc(N4CC5(CCC(OC6CCN(c7cccc8c7C(=O)N(C7CCC(=O)NC7=O)C8=O)CC6)CC5)C4)ncc3Cl)ccc2n(C(C)C)c1=O` (stereo not drawn) [compound 445, 2-{[6-({5-chloro-2-[7-({1-[2-(2,6-dioxopiperidin-3-yl)-1,3-dioxo-2,3-dihydro-1H-isoindol-4-yl]piperidin-4-yl}oxy)-2-azaspiro[3.5]nonan-2-yl]pyrimidin-4-yl}amino)-2-oxo-1-(propan-2-yl)-1,2-dihydroquinolin-3-yl]oxy}-N-methylacetamide]: the IC50 on BCL6 [1] is under 10 nM. Further, the maximal degradation (Dmax) at BCL6 [2] (T47D) is at least 70%.
In the same order, the values of `CNC(=O)COc1cc2cc(Nc3nc(N4CCC(OC5CC6(CCN(c7cccc8c7CN(C7CCC(=O)NC7=O)C8=O)CC6)C5)CC4)ncc3Cl)ccc2n(C(C)C)c1=O` (stereo not drawn) [compound 446, 2-{[6-({5-chloro-2-[4-({7-[2-(2,6-dioxopiperidin-3-yl)-1-oxo-2,3-dihydro-1H-isoindol-4-yl]-7-azaspiro[3.5]nonan-2-yl}oxy)piperidin-1-yl]pyrimidin-4-yl}amino)-2-oxo-1-(propan-2-yl)-1,2-dihydroquinolin-3-yl]oxy}-N-methylacetamide] are under 10 nM and at least 70%.
For `CNC(=O)COc1cc2cc(Nc3nc(N4CCC5(CC4)CN(CC4CCN(c6ccc(C(=O)NC7CCC(=O)NC7=O)c(OC)c6)CC4)C5)ncc3Cl)ccc2n(C(C)C)c1=O` (stereo not drawn) [compound 447, 4-[4-({7-[5-chloro-4-({3-[(methylcarbamoyl)methoxy]-2-oxo-1-(propan-2-yl)-1,2-dihydroquinolin-6-yl}amino)pyrimidin-2-yl]-2,7-diazaspiro[3.5]nonan-2-yl}methyl)piperidin-1-yl]-N-(2,6-dioxopiperidin-3-yl)-2-methoxybenzamide] the same measures were 10 to 50 nM and at least 70%.
For the compound `CNC(=O)COc1cc2cc(Nc3nc(N4CCC(CN5CC6(CCN(c7cccc8c7CN(C7CCC(=O)NC7=O)C8=O)CC6)C5)CC4)ncc3Cl)ccc2n(C(C)C)c1=O` (stereo not drawn) [compound 448, 2-{[6-({5-chloro-2-[4-({7-[2-(2,6-dioxopiperidin-3-yl)-1-oxo-2,3-dihydro-1H-isoindol-4-yl]-2,7-diazaspiro[3.5]nonan-2-yl}methyl)piperidin-1-yl]pyrimidin-4-yl}amino)-2-oxo-1-(propan-2-yl)-1,2-dihydroquinolin-3-yl]oxy}-N-methylacetamide], the IC50 at BCL6 [1] is under 10 nM. This compound also returned a Dmax on BCL6 [2] (T47D) of 50 to 70%.

Broadly, the EC50 is the concentration that produces a half-maximal response. The low end stands for greater potency, the high end for weaker potency. As a reminder, the IC50 is the concentration at which inhibition is half-maximal. What is called Dmax is the greatest extent of degradation seen.
